Drawing on patent US20240400561A1, “NOVEL SUBSTITUTED SULFONYLUREA COMPOUNDS AS INHIBITORS OF INTERLEUKIN-1 ACTIVITY” (Viva Star Biosciences (Suzhou) Co., Ltd., priority 2021, published 2024), this text covers IC50 for 25 compounds.

The IC50 is the concentration at which inhibition is half-maximal. High values mean a need for much substance, low ones inhibition by little substance.

In the experiment the target is T1, NLRP3 (Homo sapiens, UniProt Q96P20).
T1 construct: Seed THP-1 cells (5.56*10^5 cells/mL) containing 1.0 ug/mL LPS; endogenous in cells; host or cells: THP-1 cells
T1 sequence (Q96P20 whole entry): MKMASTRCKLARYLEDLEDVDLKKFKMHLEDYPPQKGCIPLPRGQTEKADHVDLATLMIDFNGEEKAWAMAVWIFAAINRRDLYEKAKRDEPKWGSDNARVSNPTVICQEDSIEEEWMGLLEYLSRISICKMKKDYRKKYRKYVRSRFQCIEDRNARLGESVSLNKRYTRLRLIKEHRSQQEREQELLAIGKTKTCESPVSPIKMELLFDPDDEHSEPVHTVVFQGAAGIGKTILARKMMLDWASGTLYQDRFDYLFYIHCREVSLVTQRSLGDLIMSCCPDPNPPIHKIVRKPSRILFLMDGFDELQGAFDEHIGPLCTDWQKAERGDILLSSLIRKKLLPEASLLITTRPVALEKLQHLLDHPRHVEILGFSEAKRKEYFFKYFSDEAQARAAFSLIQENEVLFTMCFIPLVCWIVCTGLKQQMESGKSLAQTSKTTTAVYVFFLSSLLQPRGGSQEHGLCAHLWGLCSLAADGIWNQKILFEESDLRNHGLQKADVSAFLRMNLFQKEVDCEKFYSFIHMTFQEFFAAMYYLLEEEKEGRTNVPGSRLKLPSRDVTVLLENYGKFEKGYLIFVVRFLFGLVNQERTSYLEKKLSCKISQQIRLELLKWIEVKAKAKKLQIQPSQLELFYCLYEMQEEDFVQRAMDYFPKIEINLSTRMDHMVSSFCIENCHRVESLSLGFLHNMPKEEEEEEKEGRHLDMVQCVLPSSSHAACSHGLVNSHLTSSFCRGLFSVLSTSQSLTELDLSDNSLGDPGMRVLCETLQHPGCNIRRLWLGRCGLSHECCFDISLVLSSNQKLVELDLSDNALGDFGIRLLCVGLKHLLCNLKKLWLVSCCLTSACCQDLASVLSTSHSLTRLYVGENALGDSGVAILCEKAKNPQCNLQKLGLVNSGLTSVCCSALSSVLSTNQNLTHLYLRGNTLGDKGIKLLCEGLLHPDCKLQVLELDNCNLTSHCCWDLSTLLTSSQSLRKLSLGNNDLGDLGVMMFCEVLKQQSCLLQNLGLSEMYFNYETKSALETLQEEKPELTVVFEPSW
The experiment can be described thus: THP-1 cell assay (LPS priming, nigericin), IL1β release by HTRF; called pyroptosis assay, THP IC50. Particulars: NLRP3 inhibitory activity; THP-1 cells, 1.0 ug/mL LPS, compound 3 hrs, nigericin 5 uM 1 hr, IL1β in supernatant. It counts as cell-based. How it is done:
The following method was used for compound screening. • 1. Seed THP-1 cells (5.56*10^5 cells/mL) containing 1.0 ug/mL LPS (SIGMA, L6529) in 45 uL RPMI 1640 medium (without FBS) into 384-well plate (Thermo Scientific, 164688). • 2. Add 5 uL compound (10 doses starting from 5 uM, 1:3 dilution) or vehicle (0.05% DMSO in medium) to the appropriate wells. • 3. Centrifuge the plates at 1000 rpm for 2 mins and incubate for 3 hrs at 37° C., 5% CO2. • 4. Add 5 uL nigericin (MEC, HY-100381) (final conc. 5 uM) to sample wells and positive control wells; add 5 uL RPMI 1640 medium to negative control wells. • 5. Centrifuge plates at 1000 rpm for 2 mins and incubate for 1 hr at 37° C., 5% CO2. • 6. At the end of the incubation period, centrifuge plates at 1000 rpm for 6 mins and transfer 8 uL supernatant into 384-well assay plates (PerkinElmer, 6008280). • 7. Add 8 ul RPMI 1640 medium into each well and spin down for 10 secs. • 8. Prepare the standard solutions and pre-mixed IL1β antibody solution of Human […] kits (PerkinElmer, 62HIL1BPEH) according to the instruction. • 9. Add 16 uL standard solutions into clear wells of 384-well assay plates. • 10. Add 4 uL pre-mixed IL1β antibody solution to all wells including sample wells, positive control wells, negative control wells and standard solutions wells. • 11. Seal the plates, spin down for 10 secs, incubation for overnight at RT and read on an HTRF® compatible reader (BMG LABTECH, PHERAstar FS). • 12. The concentrations of IL1β for treated wells are calculated by the standard curve. • 13. The IC50 data is fitted to a non-liner regression equation (log inhibitor vs. response—Variable slope four parameters)).
(TR-FRET usually uses a lanthanide donor and a delayed reading to cut background.)

Structures are written as SMILES.

On to `Cc1cc2c(c(NC(=O)NS(=O)(=O)c3cnn(CC4CC4)c3)c1-c1ccnc3[nH]ccc13)CCC2` [Example 8, 1-(cyclopropylmethyl)-N-((6-methyl-5-(1H-pyrrolo[2,3-b]pyridin-4-yl)-2,3-dihydro-1H-inden-4-yl)carbamoyl)-1H-pyrazole-4-sulfonamide], for which the IC50 is at most 30 nM.

Compound `Cc1cc2c(c(NC(=O)NS(=O)(=O)c3ccnc(OC4CC4)c3)c1-c1ccn3nccc3c1)CCC2` [Example 33, 2-cyclopropoxy-N-((6-methyl-5-(pyrazolo[1,5-a]pyridin-5-yl)-2,3-dihydro-1H-inden-4-yl)carbamoyl)pyridine-4-sulfonamide] returned an IC50 of at most 30 nM.

`Cc1cc2c(c(NC(=O)NS(=O)(=O)c3cncc(N(C)C4CC4)c3)c1-c1ccn3nccc3c1)CCC2` [Example 29, 5-(cyclopropyl(methyl)amino)-N-((6-methyl-5-(pyrazolo[1,5-a]pyridin-5-yl)-2,3-dihydro-1H-inden-4-yl)carbamoyl)pyridine-3-sulfonamide] displayed an IC50 of 30 to 300 nM.

Turning to `Cc1cc2c(c(NC(=O)NS(=O)(=O)c3ccn(CC4CCC4)n3)c1-c1ccn3nccc3c1)CCC2` [Example 11, 1-(cyclobutylmethyl)-N-((6-methyl-5-(pyrazolo[1,5-a]pyridin-5-yl)-2,3-dihydro-1H-inden-4-yl)carbamoyl)-1H-pyrazole-3-sulfonamide], the IC50 was at most 30 nM.

For the compound `O=C(Nc1c2c(cc(F)c1-c1ccn3nccc3c1)CCC2)NS(=O)(=O)c1ccn(C2CC2)n1` [Example 25, 1-cyclopropyl-N-((6-fluoro-5-(pyrazolo[1,5-a]pyridin-5-yl)-2,3-dihydro-1H-inden-4-yl)carbamoyl)pyrazole-3-sulfonamide], the IC50 is at most 30 nM.

For the compound `Cc1c(-c2ccc3c(c2NC(=O)NS(=O)(=O)c2cc(C(C)(C)O)cs2)CCC3)ccn2cncc12` [Example 73, 4-(2-hydroxypropan-2-yl)-N-((5-(8-methylimidazo[1,5-a]pyridin-7-yl)-2,3-dihydro-1H-inden-4-yl)carbamoyl)thiophene-2-sulfonamide], the 50% inhibitory concentration (IC50) lay in the range of 30 to 300 nM.

`CC(C)(O)c1csc(S(=O)(=O)NC(=O)Nc2c(-c3ccn4nncc4c3)ccc3c2CCC3)c1` [Example 62, N-((5-([1,2,3]triazolo[1,5-a]pyridin-5-yl)-2,3-dihydro-1H-inden-4-yl)carbamoyl)-4-(2-hydroxypropan-2-yl)thiophene-2-sulfonamide]: the IC50 fell in the range of 30 to 300 nM.

`Cc1cc2c(c(NC(=O)NS(=O)(=O)c3cnn(CC4CC4)c3)c1-c1ccn3nccc3c1)CCC2` [Example 6, 1-(cyclopropylmethyl)-N-((6-methyl-5-(pyrazolo[1,5-a]pyridin-5-yl)-2,3-dihydro-1H-inden-4-yl)carbamoyl)-1H-pyrazole-4-sulfonamide] returned an IC50 of at most 30 nM.

For the compound `Cc1cc2c(c(NC(=O)NS(=O)(=O)c3ccn(C[C@@H]4CCO4)n3)c1-c1ccc3ccnn3c1)CCC2` [Example 95, (S)—N-((6-methyl-5-(pyrazolo[1,5-a]pyridin-6-yl)-2,3-dihydro-1H-inden-4-yl)carbamoyl)-1-(oxetan-2-ylmethyl)-1H-pyrazole-3-sulfonamide], the IC50 was in the range of 30 to 300 nM.

In turn, `CC(C)(O)c1csc(S(=O)(=O)NC(=O)Nc2c(-c3ccnc4c3ccn4C3CCOCC3)ccc3c2CCC3)c1` [Example 56, 4-(2-hydroxypropan-2-yl)-N-((5-(1-(tetrahydro-2H-pyran-4-yl)-1H-pyrrolo[2,3-b]pyridin-4-yl)-2,3-dihydro-1H-inden-4-yl)carbamoyl)thiophene-2-sulfonamide] yielded an IC50 of 30 to 300 nM.

In turn, `Cc1cc2c(c(NC(=O)NS(=O)(=O)c3cncc(C4CCC4)c3)c1-c1ccn3nccc3c1)CCC2` [Example 84, 5-cyclobutyl-N-((6-methyl-5-(pyrazolo[1,5-a]pyridin-5-yl)-2,3-dihydro-1H-inden-4-yl)carbamoyl)pyridine-3-sulfonamide] registered an IC50 of at most 30 nM.

In turn, `Cc1cc2c(c(NC(=O)NS(=O)(=O)c3ccn(C(C)C4CC4)n3)c1-c1ccn3nccc3c1)CCC2` (stereo not shown) [Example 82, 1-(1-cyclopropylethyl)-N-((6-methyl-5-(pyrazolo[1,5-a]pyridin-5-yl)-2,3-dihydro-1H-inden-4-yl)carbamoyl)-1H-pyrazole-3-sulfonamide] gave an IC50 of 300 to 1000 nM.

The compound `CC(C)(O)c1csc(S(=O)(=O)NC(=O)Nc2c3c(cc(C#N)c2-c2ccn4cncc4c2)CCC3)c1` [Example 2, N-((6-cyano-5-(imidazo[1,5-a]pyridin-7-yl)-2,3-dihydro-1H-inden-4-yl)carbamoyl)-4-(2-hydroxypropan-2-yl)thiophene-2-sulfonamide] registered an IC50 of at most 30 nM.

Turning to `Cc1cc2c(c(NC(=O)NS(=O)(=O)c3ccn(C4CC4)n3)c1-c1ccc3ncnn3c1)CCC2` [Example 97, N-((5-([1,2,4]triazolo[1,5-a]pyridin-6-yl)-6-methyl-2,3-dihydro-1H-inden-4-yl)carbamoyl)-1-cyclopropyl-1H-pyrazole-3-sulfonamide], the IC50 is at most 30 nM.

`CC(C)(O)c1csc(S(=O)(=O)NC(=O)Nc2c(-c3ccc4nccn4c3)ccc3c2CCC3)c1` [Example 51, 4-(2-hydroxypropan-2-yl)-N-((5-(imidazo[1,2-a]pyridin-6-yl)-2,3-dihydro-1H-inden-4-yl)carbamoyl)thiophene-2-sulfonamide] showed an IC50 of at most 30 nM.

Take `Cn1ccc2c(-c3ccc4c(c3NC(=O)NS(=O)(=O)c3cnn(CC5CC5)c3)CCC4)ccnc21` [Example 4, 1-(cyclopropylmethyl)-N-((5-(1-methyl-1H-pyrrolo[2,3-b]pyridin-4-yl)-2,3-dihydro-1H-inden-4-yl)carbamoyl)-1H-pyrazole-4-sulfonamide]: the 50% inhibitory concentration (IC50) is 30 to 300 nM.

`Cc1cc2c(c(NC(=O)NS(=O)(=O)c3ccn(C[C@H](C)O)n3)c1-c1ccn3nccc3c1)CCC2` [Example 80, (S)-1-(2-hydroxypropyl)-N-((6-methyl-5-(pyrazolo[1,5-a]pyridin-5-yl)-2,3-dihydro-1H-inden-4-yl)carbamoyl)-1H-pyrazole-3-sulfonamide]: the concentration for half-maximal inhibition (IC50) was at most 30 nM.

For the compound `Cc1cc2c(c(NC(=O)NS(=O)(=O)c3cc(CC4CC4)n(C)n3)c1-c1ccn3nccc3c1)CCC2` [Example 17, 5-(cyclopropylmethyl)-1-methyl-N-((6-methyl-5-(pyrazolo[1,5-a]pyridin-5-yl)-2,3-dihydro-1H-inden-4-yl)carbamoyl)-1H-pyrazole-3-sulfonamide], the 50% inhibitory concentration (IC50) was at most 30 nM.

In turn, `Cc1cc2c(c(NC(=O)NS(=O)(=O)c3ccn(C4CC4)n3)c1-c1ccn3nccc3c1)OCC2` [Example 83, 1-cyclopropyl-N-((5-methyl-6-(pyrazolo[1,5-a]pyridin-5-yl)-2,3-dihydrobenzofuran-7-yl)carbamoyl)-1H-pyrazole-3-sulfonamide] returned an IC50 of 30 to 300 nM.

`CC(C)(O)c1csc(S(=O)(=O)NC(=O)Nc2c(-c3cncc4[nH]ccc34)ccc3c2CCC3)c1` [Example 45, N-((5-(1H-pyrrolo[2,3-c]pyridin-4-yl)-2,3-dihydro-1H-inden-4-yl)carbamoyl)-4-(2-hydroxypropan-2-yl)thiophene-2-sulfonamide] returned an IC50 of 300 to 1000 nM.

`O=C(Nc1c2c(cc(F)c1-c1ccn3nccc3c1)CCC2)NS(=O)(=O)c1ccn(CC2CC2)n1` [Example 24, 1-(cyclopropylmethyl)-N-((6-fluoro-5-(pyrazolo[1,5-a]pyridin-5-yl)-2,3-dihydro-1H-inden-4-yl)carbamoyl)-1H-pyrazole-3-sulfonamide] displayed an IC50 of at most 30 nM.

As to `Cc1cc2c(c(NC(=O)NS(=O)(=O)c3ccn(C4CC4)n3)c1-c1ccn3nncc3c1)CCC2` [Example 78, N-((5-([1,2,3]triazolo[1,5-a]pyridin-5-yl)-6-methyl-2,3-dihydro-1H-inden-4-yl)carbamoyl)-1-cyclopropyl-1H-pyrazole-3-sulfonamide], the IC50 was at most 30 nM.

The compound `CO[C@@H](C)Cn1ccc(S(=O)(=O)NC(=O)Nc2c3c(cc(C)c2-c2ccn4nccc4c2)CCC3)n1` [Example 26, (S)-1-(2-methoxypropyl)-N-((6-methyl-5-(pyrazolo[1,5-a]pyridin-5-yl)-2,3-dihydro-1H-inden-4-yl)carbamoyl)-1H-pyrazole-3-sulfonamide] registered an IC50 of at most 30 nM.

Compound `Cc1cc2c(c(NC(=O)NS(=O)(=O)c3cc(C(C)(C)O)cs3)c1-c1ccn3nccc3c1)CCC2` [Example 70, 4-(2-hydroxypropan-2-yl)-N-((6-methyl-5-(pyrazolo[1,5-a]pyridin-5-yl)-2,3-dihydro-1H-inden-4-yl)carbamoyl)thiophene-2-sulfonamide] returned an IC50 of at most 30 nM.

Compound `Cc1cc2c(c(NC(=O)NS(=O)(=O)c3ccn(C[C@@H]4CCO4)n3)c1-c1ccn3ncnc3c1)CCC2` [Example 94, (S)—N-((5-([1,2,4]triazolo[1,5-a]pyridin-7-yl)-6-methyl-2,3-dihydro-1H-inden-4-yl)carbamoyl)-1-(oxetan-2-ylmethyl)-1H-pyrazole-3-sulfonamide] returned an IC50 of 30 to 300 nM.
